Data as given in PubChem BioAssay AID1963432 (Molecular Pharmacology Branch, DTP, NCI, 2024).
pIC50: −log10 of the molar value. Values joined by “and” are separate entries in the source; they are usually repeats but may differ in a detail not shown here. Identical values can stand only once.

System: SYO-1 complex spheroid growth, percent test/control
Test: Anticancer human tumor SYO-1 cell line growth inhibition [Asc];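 also: compound exposure lasted 7 days after spheroids grew 3 days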;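 as to viability, T/C: 100% = DMSO vehicle control viability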
Conditions: for viability, T/C: stronger effect = lower value
Procedure: Multicellular complex tumor spheroid response to apoptosis pathway targeting inhibitors Alrizomadlin, Pelcitoclax, and Dasminapant in combination with a variety of drugs and investigational agents in selected tumor cell lines
The MDM2 inhibitor alrizomadlin, the Bcl-2/Bcl-xL inhibitor pelcitoclax, and the IAPs inhibitor dasminapant were evaluated both individually and in combination with standard of care and investigational anticancer small molecules within a complex spheroid model of solid tumors. . Complex spheroids include a stromal component modeled by human endothelial cells (HUVEC) and fibroblasts modeled by human mesenchymal stem cells (MSCs). The concentration ranges selected for each drug and investigational agent were based upon clinically achievable concentrations if the clinical Cmax of the agent was known.
Compounds. The drugs and investigational agents: alrizomadlin (APG-115; NSC831270), pelcitoclax (APG-1252; NSC835773), dasminapant (APG-1387;NSC834197), TAK-243 (NSC785004), copanlisib (NSC809693), olaparib (NSC753686), talazoparib (NSC767125), cobimetinib (NSC 768068), eltanexor (KPT-8602, NSC 794443), abemaciclib (NSC 768073), sotorasib (NSC818433), adagrasib (NSC 831453), MRTX-1133 (NSC 836407), Iadademestat (ORY1001, NSC 806812), and RMC-4630 (NSC839698), were obtained from the NCI Developmental Therapeutics Program Chemical Repository. The FDA-approved anticancer drug set is available from the Developmental Therapeutics Program at https://dtp.cancer.gov/organization/dscb/obtaining/available plates.htm. […] The stock solutions were prepared in dimethyl sulfoxide (DMSO, Sigma-Aldrich, St. Louis, MO, cat. D2650) at 800-fold the tested concentration and stored at -70 degrees C prior to their use. All drugs and investigational agents were tested over a range starting from a high concentration at or near the clinical Cmax and decreasing in half-log increments. If the clinical Cmax for an agent had not been determined, the highest concentration tested was 10 microM.
The patient-derived cancer (PDC) cell lines include five colon adenocarcinomas: 186277-243-T-J2-PDC, 616215-338-R-J1-PDC, 439559-082-T-J2-PDC, 463943-066-T-J2-PDC, and 519858-162-T-J1-PDC; three pancreatic carcinomas: 323965-272-R-J2-PDC, 521955-158-R6-J3-PDC, and 521955-158-R2-J5-PDC; two uterine sarcomas: 327498-152-R-J2-PDC and 993429-296-R-J1-PDC; two rhabdomyosarcomas: 755483-174-R-J1-PDC and 772245-204-R-J1-PDC; two soft tissue sarcomas: 126254-015-R-J1-PDC and 494315-158-R-J1-PDC; two malignant fibrous histiocytomas: 317291-083-R-J1-PDC and 596521-263-R-J1-PDC; two breast carcinomas: 171881-019-R-J1-PDC and 885512-296-R-J2-PDC; and one ovarian carcinoma: 6556581-035-R-J-PDC were obtained from the NCI PDMR, (https://pdmr.cancer.gov). The established cell lines HSSY-2 synovial sarcoma (RRID:CVCL 8719), SYO-1 synovial sarcoma (RRID:CVCL_7146), MPNST malignant peripheral neural sheath tumor were obtained from the Sloan Kettering Institute. The following established cell lines were purchased from the American Type Culture Collection (ATCC, Manassas, VA), Sor the received from the NCI repository:, PANC-1 pancreatic carcinoma (CRL-1469, RRID:CVCL_0480), OVCAR-5 ovarian carcinoma (RRID:CVCL_1628), OVCAR-8 ovarian carcinoma (RRID:CVCL_1629), , MCF-7 breast carcinoma (CRL-12584, RRID:CVCL_0031), MDA-MB-231 breast carcinoma (CRL-12532, RRID:CVCL_0062), NCI-H1876 small cell lung carcinoma (CRL-5902, RRID:CVCL_1503), NCI-H510A small cell lung carcinoma (HTB-184, RRID:CVCL_1565), NCI-H1417 (CRL-5869, RRID:CVCL_1469), and NCI-H196 small cell lung carcinoma (CRL-5823, RRID:CVCL_1509). Dr. Peter Houghton (Greehey Children's Cancer Research Institute, University of Texas Health Science Center, San Antonio, TX) provided Rh-18 rhabdomyosarcoma (RRID:CVCL_1659). Pooled donor human umbilical vein endothelial cells (HUVEC, Lonza, cat. CC-2519) and human mesenchymal stem cells (hMSC, Lonza, cat. PT-2501) were purchased from Lonza (Walkersville, MD).
Cell Culture. […]

Which viability, T/C (compound 0.0316 µM) does the source give for `C=CC(=O)N1CCN(c2nc(=O)n(-c3c(C)ccnc3C(C)C)c3nc(-c4c(O)cccc4F)c(F)cc23)C(C)C1` (centres undefined) here?
Its viability, T/C is 100% and 96.9% and 116%.

What about the viability, T/C (compound 0.1 µM) of the same compound?
The viability, T/C was 108% and 98.8% and 106%.

What about the viability, T/C (compound 0.316 µM) of the same compound?
Its viability, T/C is 104% (2×) and 99.7%.

And the viability, T/C (compound 1 µM)?
The viability, T/C was 103% (2×) and 104%.

And the viability, T/C (compound 3.16 µM)?
The viability, T/C was 98.7% and 95.2% and 101%.

What about the viability, T/C (compound 10 µM) of the same compound?
Its viability, T/C is 94.3% and 87.2% and 89.7%.

And the pIC50 (curve of compound)?
The pIC50 was less than 5.00.

`CCN1CCN(Cc2ccc(Nc3ncc(F)c(-c4cc(F)c5nc(C)n(C(C)C)c5c4)n3)nc2)CC1` + Cc1c(S(C)(=O)=O)c(-c2cc(F)cc(N3CCN(c4ccc(NS(=O)(=O)c5ccc(NC(CCN6CCC(C(=O)OCCCP(=O)(O)O)CC6)CSc6ccccc6)c(S(=O)(=O)C(F)(F)F)c5)cc4)CC3)c2)c(-c2ccc(Cl)cc2)n1C(C)C was tested. Which pIC50 (curve of first compound, second compound 0.0316 µM) did it give?
Its pIC50 is less than 6.00.

And the pIC50 (curve of first compound, second compound 0.1 µM)?
Its pIC50 is less than 6.00.

And the pIC50 (curve of first compound, second compound 0.316 µM)?
The pIC50 was less than 6.00.

And the pIC50 (curve of first compound, second compound 1 µM)?
The pIC50 was less than 6.00.

And the pIC50 (curve of first compound, second compound 3.16 µM)?
The pIC50 was less than 6.00.

What about the pIC50 (curve of first compound, second compound 10 µM) of the same compound?
Its pIC50 is less than 6.00.

And the viability, T/C (second compound 0.0316 µM, first compound 0.00316 µM)?
Its viability, T/C is 102%.

And the viability, T/C (second compound 0.0316 µM, first compound 0.01 µM)?
The viability, T/C was 99.2%.

And the viability, T/C (second compound 0.0316 µM, first compound 0.0316 µM)?
Its viability, T/C is 109%.

What about the viability, T/C (second compound 0.0316 µM, first compound 0.1 µM) of the same compound?
Its viability, T/C is 111%.

And the viability, T/C (second compound 0.0316 µM, first compound 0.316 µM)?
Its viability, T/C is 121%.

And the viability, T/C (second compound 0.0316 µM, first compound 1 µM)?
Its viability, T/C is 106%.

And the viability, T/C (second compound 0.1 µM, first compound 0.00316 µM)?
Its viability, T/C is 99.8%.

And the viability, T/C (second compound 0.1 µM, first compound 0.01 µM)?
The viability, T/C was 101%.

And the viability, T/C (second compound 0.1 µM, first compound 0.0316 µM)?
The viability, T/C was 97.8%.

And the viability, T/C (second compound 0.1 µM, first compound 0.1 µM)?
Its viability, T/C is 113%.

What about the viability, T/C (second compound 0.1 µM, first compound 0.316 µM) of the same compound?
The viability, T/C was 116%.

And the viability, T/C (second compound 0.1 µM, first compound 1 µM)?
The viability, T/C was 109%.

And the viability, T/C (second compound 0.316 µM, first compound 0.00316 µM)?
Its viability, T/C is 103%.

And the viability, T/C (second compound 0.316 µM, first compound 0.01 µM)?
Its viability, T/C is 99.1%.

And the viability, T/C (second compound 0.316 µM, first compound 0.0316 µM)?
Its viability, T/C is 108%.

And the viability, T/C (second compound 0.316 µM, first compound 0.1 µM)?
Its viability, T/C is 108%.

And the viability, T/C (second compound 0.316 µM, first compound 0.316 µM)?
Its viability, T/C is 114%.

What about the viability, T/C (second compound 0.316 µM, first compound 1 µM) of the same compound?
Its viability, T/C is 99.4%.

And the viability, T/C (second compound 1 µM, first compound 0.00316 µM)?
The viability, T/C was 99.7%.

And the viability, T/C (second compound 1 µM, first compound 0.01 µM)?
Its viability, T/C is 105%.

And the viability, T/C (second compound 1 µM, first compound 0.0316 µM)?
Its viability, T/C is 103%.

And the viability, T/C (second compound 1 µM, first compound 0.1 µM)?
The viability, T/C was 106%.

And the viability, T/C (second compound 1 µM, first compound 0.316 µM)?
The viability, T/C was 115%.

And the viability, T/C (second compound 1 µM, first compound 1 µM)?
The viability, T/C was 95.1%.

And the viability, T/C (second compound 3.16 µM, first compound 0.00316 µM)?
Its viability, T/C is 92.7%.

What about the viability, T/C (second compound 3.16 µM, first compound 0.01 µM) of the same compound?
Its viability, T/C is 93.7%.

What about the viability, T/C (second compound 3.16 µM, first compound 0.0316 µM) of the same compound?
The viability, T/C was 110%.

And the viability, T/C (second compound 3.16 µM, first compound 0.1 µM)?
The viability, T/C was 107%.

What about the viability, T/C (second compound 3.16 µM, first compound 0.316 µM) of the same compound?
Its viability, T/C is 110%.

What about the viability, T/C (second compound 3.16 µM, first compound 1 µM) of the same compound?
The viability, T/C was 92.2%.

What about the viability, T/C (second compound 10 µM, first compound 0.00316 µM) of the same compound?
The viability, T/C was 87.5%.

What about the viability, T/C (second compound 10 µM, first compound 0.01 µM) of the same compound?
Its viability, T/C is 82.5%.

And the viability, T/C (second compound 10 µM, first compound 0.0316 µM)?
The viability, T/C was 80%.

What about the viability, T/C (second compound 10 µM, first compound 0.1 µM) of the same compound?
The viability, T/C was 94.2%.

What about the viability, T/C (second compound 10 µM, first compound 0.316 µM) of the same compound?
The viability, T/C was 101%.

And the viability, T/C (second compound 10 µM, first compound 1 µM)?
The viability, T/C was 86.6%.
